Assays:
Type in all cases: in vivo
GH = experiment: 91-day cat safety study: serum GH; details: cats, 6 mg/kg, compared to placebo controls; attenuated through Days 30, 59, 91
Description: This controlled study included two treatment groups with 4 adult cats receiving placebo (Group 1) and 8 adult cats receiving capromorelin (Formulation #9, as described above) (Group 2) for 91 consecutive days. All cats were offered food daily for a 6-hour period following an 11-day acclimation phase. All cats were weighed on Days −11, −1, 1, 14, 30, 59, 75, and 91. On Days 1 through 91, animals were orally administered capromorelin once daily via syringe at dose levels of 0 or 6 mg/kg. At one hour post-dose, all cats were offered food for a 6-hour period. Variables of interest included weight gain/loss, food consumption, clinical pathology, and serum analysis of IGF-1 and GH.
On Days 1, 30, 59, and 91, blood samples were collected prior to daily dose administration and at 8 hours post-dose and processed to serum for analysis of IGF-1 and GH levels. […] Serum chemistry parameters measured included albumin (ALB), creatine kinase (CK), albumin/globulin ratio (A\G), globulin (GLOB), alkaline phosphatase (ALP), glucose (GLU), fructosamine, alanine aminotransferase (ALT), blood urea nitrogen (BUN), phosphorus (PHOS), calcium (Ca), potassium (K), chloride (Cl), sodium (Na), cholesterol (CHOL), total protein (TP), creatinine (CRE), total bilirubin (TBIL), BUN/creatinine ratio, and sodium/potassium ratio.

[1] = Capromorelin efficacy in cats for 21 days: food consumption and bodyweight; details: for mean food intake increase over baseline: Day 1 to Day 21 vs Days -3 to -1
Description: Thirty-two cats (16 neutered males, 16 females) were divided into 4 treatment groups including 4 animals of each sex per group. The cats were acclimated to the study environment for 10 days prior to study start. All cats were orally dosed with placebo (Group 1) or capromorelin (30 mg/ml oral solution, Formulation 9 as described above) at 1 mg/kg (Group 2), 2 mg/kg (Group 3) or 3 mg/kg (Group 4), for 21 days, with dosing starting on Day 1. Physical examinations were performed on Day −10 and general health observations made daily. Body weights were evaluated on Days −10, −8, −1, 1, 8, 15 and 22 days. Cats were fed about 1 hour after dosing. Commercial dry cat food (300 g) was provided for 5 hours and then removed and the amount of food consumed (g) calculated per cat. On Days 1, 14 and 21, blood samples were collected prior to daily dose administration and at 8 hours post-dose and serum processed for measurement of IGF-1 levels.
On Day 12, two study animals (one male each from Groups 1 and 4) were removed for reasons unrelated to the study and were not included in the data analysis. Cat 4M4 in the 3 mg/kg group lost significant weight during the first 8 days of treatment—then rebounded and began to gain the weight back. Statistical analysis for weight gain was completed with and without this cat's (4M4) data included.

[2] = Pilot clinical field study in cats with CKD (Example 11); details: for mean bodyweight change (±SEM): 2 mg/kg oral once daily
Description: This placebo controlled, masked non-GCP study was to confirm the safety and effectiveness (weight gain) of AT-002 (capromorelin) at a dose of 2 mg/kg administered once daily for 90 days in cats with CKD and a history of losing weight.
A total of 42 cats were screened at 7 veterinary clinics. Of these 42 cats, 1 was a screen failure, resulting in 41 cats being enrolled and randomized to 1 of 2 treatments, capromorelin oral solution (AT-002) or placebo (CP). Eligible study candidates included cats that presented to the veterinary clinic with a diagnosis of CKD (IRIS stages II, III or IV) and a documented decrease in bodyweight over the previous 6 months. Test articles were provided as flavored oral solutions and were administered orally once daily beginning on Day 0 for 90±3 days, AT-002 at a dose rate of 2 mg/kg and CP at the equivalent dose volume to AT-002. The Investigator, study staff and cat Owners were masked to treatment. Cats were re-evaluated at the clinic on Day 14±1, Day 30±2, Day 60±3 and Day 90±3.
The key variable for the determination of effectiveness was bodyweight. Other effectiveness variables measured included body condition score, muscle condition score, quality of life assessments (unvalidated) and owner appetite assessments (unvalidated). Safety was assessed by physical examinations, clinical pathology testing (hematology and serum chemistry), urinalysis, serum IGF-1 levels and adverse event monitoring.

[3] = 2 mg/kg, 90 days, PPP1, not statistically significant vs placebo

SMILES: CN1N=C2CCN(C(=O)[C@@H](COCc3ccccc3)NC(=O)C(C)(C)N)C[C@@]2(Cc2ccccc2)C1=O.O=C(O)C(O)C(O)C(=O)O [capromorelin, N-[(2R)-1-[(3aR)-2-methyl-3-oxo-3a-(phenylmethyl)-6,7-dihydro-4H-pyrazolo[4,3-c]pyridin-5-yl]-1-oxo-3-(phenylmethoxy)propan-2-yl]-2-amino-2-methylpropanamide L-tartrate]
- GH following treatment (GH): increased
- mean percent bodyweight change ([1]; 1 mg/kg (Group 2), Day 15): 4.24%
- mean percent bodyweight change ([1]; 1 mg/kg (Group 2), Day 22 (21-day exposure)): 5.41%
- mean food intake increase over baseline ([1]; 1 mg/kg oral (Group 2)): 25.32%
- mean percent bodyweight change ([1]; 2 mg/kg (Group 3), Day 8): 3.23%
- mean percent bodyweight change ([1]; 2 mg/kg (Group 3), Day 15): 5.97%
- mean percent bodyweight change ([1]; 2 mg/kg (Group 3), Day 22 (21-day exposure)): 6.61%
- mean food intake increase over baseline ([1]; 2 mg/kg oral (Group 3)): 45.67%
- mean food consumption change from baseline ([1]; 2 mg/kg, interval Day 8 through Day 14): 54.42%
- mean percent bodyweight change ([1]; 3 mg/kg (Group 4), 21-day exposure): 3.92%
- mean food intake increase over baseline ([1]; 3 mg/kg oral (Group 4)): 29.59%
- mean body condition score (scale of 1 to 9) [2, 3]: increased slightly
- mean muscle condition score (scale of 0 to 3) [2, 3]: increased
- % Success, success defined as greater than 0% gain ([2]; 2 mg/kg, Day 14, PPP2): 86.7%
- % Success, success defined as maintenance or gain ([2]; 2 mg/kg, Day 14, PPP2): 86.7%
- Body weight successes per group, success defined as greater than 0% gain ([2]; 2 mg/kg, Day 14, PPP2): 13/15
- Bodyweight successes per group, success defined as maintenance or gain ([2]; 2 mg/kg, Day 14, PPP2): 13/15
- % Success, success defined as greater than 0% gain ([2]; 2 mg/kg, Day 30, PPP2): 86.7%
- % Success, success defined as maintenance or gain ([2]; 2 mg/kg, Day 30, PPP2): 93.3%
- Body weight successes per group, success defined as greater than 0% gain ([2]; 2 mg/kg, Day 30, PPP2): 13/15
- Bodyweight successes per group, success defined as maintenance or gain ([2]; 2 mg/kg, Day 30, PPP2): 14/15
- % Success, success defined as greater than 0% gain ([2]; 2 mg/kg, Day 60, PPP2): 66.7%
- % Success, success defined as maintenance or gain ([2]; 2 mg/kg, Day 60, PPP2): 80.0%
- Body weight successes per group, success defined as greater than 0% gain ([2]; 2 mg/kg, Day 60, PPP2): 10/15
- Bodyweight successes per group, success defined as maintenance or gain ([2]; 2 mg/kg, Day 60, PPP2): 12/15
- change in mean descriptive quality of life monthly score (±SEM) from Day 0 ([2]; 2 mg/kg, Day 90): 0.00±0.11
- % Success, success defined as greater than 0% gain ([2]; 2 mg/kg, Day 90, PPP2): 73.3%
- % Success, success defined as maintenance or gain ([2]; 2 mg/kg, Day 90, PPP2): 80.0%
- Body weight successes per group, success defined as greater than 0% gain ([2]; 2 mg/kg, Day 90, PPP2): 11/15
- Bodyweight successes per group, success defined as maintenance or gain ([2]; 2 mg/kg, Day 90, PPP2): 12/15
- mean descriptive owner appetite assessment monthly scores ([2]; 2 mg/kg, compared to placebo, Days 30, 60, 90, PPP1): did not change significantly
- mean descriptive quality of life monthly score (±SEM), scale of 1 to 5 ([2]; capromorelin group, Day 0 (baseline)): 3.85±0.19
- tolerability ([2]; cats with CKD, 2 mg/kg once daily, 90 days): well-tolerated
- mean bodyweight change (±SEM) ([2]; cats with CKD, Day 14, n = 13, PPP1): 2.93% ± 0.70%
- mean bodyweight change (±SEM) ([2]; cats with CKD, Day 30, n = 13, PPP1, L-tartrate, 2 mg/kg): 3.86%±0.85%
- mean bodyweight change (±SEM) ([2]; cats with CKD, Day 30, n = 13, PPP1, listed as Capromorelin, L-tartrate, 2 mg/kg): 3.86% ± 0.85%
- mean bodyweight change (±SEM) ([2]; cats with CKD, Day 60, n = 13, PPP1, L-tartrate, 2 mg/kg): 4.06%±1.42%
- mean bodyweight change (±SEM) ([2]; cats with CKD, Day 60, n = 13, PPP1, listed as Capromorelin, L-tartrate, 2 mg/kg): 4.06% ± 1.42%
- mean bodyweight change (±SEM) ([2]; cats with CKD, Day 90, n = 13, PPP1, L-tartrate, 2 mg/kg): 3.59%±1.59%
- mean bodyweight change (±SEM) ([2]; cats with CKD, Day 90, n = 13, PPP1, listed as Capromorelin, L-tartrate, 2 mg/kg): 3.59% ± 1.59%

— patent US10064909B2, “Compositions and methods for chronic use of a weight-gaining compound” (priority 2015, dated 2018)
